Measurements published in paper PMC8501799, “Constitutive signal bias mediated by the human GHRHR splice variant 1” (Proceedings of the National Academy of Sciences of the …, 2021).

Columns and labels:
Format in all cases: cell-based, human
SV1/Gs = test: Gs activation (G protein NanoBiT assay); conditions: HEK293T
Procedure: HEK293T cells were seeded at a density of 30,000 cells per well into 96-well culture plates pretreated with poly-D-lysine hydrobromide. After incubation for 24 h to reach 70% to 80% confluence, the cells were transiently transfected with GHRHR or SV1, Gαs-LgBiT, Gβ1, and Gγ2-SmBiT, at a 2:1:5:5 mass ratio. Twenty-four hours after transfection, cells were washed once and incubated for 30 min at 37 °C with HBSS buffer (pH 7.4) supplemented with 0.1% BSA and 10 mM HEPES. They were then reacted with coelenterazine H (5 μM) for 1 h at RT. Luminescence signals were measured using an Envision plate reader at 15-s intervals (25 °C). […] Data were corrected to baseline and vehicle-treated samples.
All functional study data were analyzed using Prism 7 (GraphPad) and presented as means ± SEM from at least three independent experiments. Concentration-response curves were evaluated with a three-parameter logistic equation. The significance was determined with either two-tailed Student’s t test or one-way ANOVA, and P < 0.05 is considered statistically significant.
Table S1. Effects of SV1 on GHRH-induced Gs activation.
Plasmid pEC50 Emax (% WT GHRHR)
G protein NanoBiT data were analyzed using a three-parameter logistic equation to d et ermine pEC50 and Emax values. pEC50 is the negative logarithm of the molar concentration of agonist that induced half the maximal response. Emax is expressed as a percentage of GHRHR/Gs response.
All values are means ± S.E.M. of five independent experiments (n = 5) conducted in duplicate. One-way ANOVA was used to determine statistical significance (*P < 0.05). WT, wild-type; NA, not

22Rv1 cells [1] = test: cAMP accumulation in prostate cancer cells; conditions: concentration-response, Fig. 1E; 22Rv1 express high levels of SV1
Procedure: (§1) Spodoptera frugiperda (Sf9) insect cells (Expression Systems) were grown in ESF 921 serum-free medium (Expression Systems) at 27 °C and 120 rpm. HEK293T cells were purchased from American Type Culture Collection (ATCC), cultured in Dulbecco’s modified Eagle’s medium (DMEM; Life Technologies), supplemented with 10% fetal bovine serum (FBS; Gibco), and maintained in a humidified chamber with 5% CO2 at 37 °C. The PC3 prostate cancer cell line (ATCC) was cultured in F12 medium supplemented with 10% FBS and maintained in a humidified chamber with 5% CO2 at 37 °C. 22Rv1 and LNCaP human prostate cancer cells (ATCC) were cultured in Roswell Park Memorial Institute (RPMI)-1640 medium supplemented with 10% FBS and maintained in a humidified atmosphere containing 5% CO2 at 37 °C.
(§2) GHRH-stimulated cAMP accumulation was measured by a LANCE Ultra cAMP kit (PerkinElmer). Briefly, HEK293T cells (24 h after transfection with SV1 or GHRHR) or prostate cancer cells were digested by 0.2% (wt/vol) EDTA and washed once with Dulbecco’s phosphate-buffered saline (PBS). Cells were then resuspended with stimulation buffer (Hanks’ balanced salt solution [HBSS] supplemented with 5 mM HEPES, 0.5 mM IBMX, and 0.1% [wt/vol] bovine serum albumin [BSA], pH 7.4) to a density of 0.6 million cells per milliliter and added to 384-well white plates (3,000 cells per well). […] The reaction was stopped by adding 5 μL Eu-cAMP tracer and 5 μL ULight-anti-cAMP. After 1 h RT incubation, TR-FRET signals (excitation: 320 nm, emission: 615 and 665 nm) were measured by an Envision plate reader (PerkinElmer). cAMP concentrations were interpolated by a standard curve.

LNCaP cells = test: cAMP accumulation in prostate cancer cells; conditions: concentration-response, Fig. 1E; LNCaP express high levels of GHRHR
Procedure: as §1, §2

PC3 cells = test: cAMP accumulation in prostate cancer cells; conditions: concentration-response, Fig. 1E; PC3 low expression of both
Procedure: as §1, §2

22Rv1 cells [2] = test: ERK1/2 phosphorylation in prostate cancer cells; conditions: 1 μM GHRH; among three prostate cancer cell lines
Procedure: as §1
ERK1/2 phosphorylation was detected with the AlphaScreen SureFire ERK1/2 assay kit (PerkinElmer). […] The plate was incubated in the dark at 37 °C for 1 h, after which the fluorescence signal was measured by an Envision plate reader using standard AlphaScreen settings.
The cells were then lysed with radioimmunoprecipitation assay lysis buffer (Sigma-Aldrich) on ice for 5 min and centrifuged at 12,000 rpm for 15 min. Protein concentration of the supernatant was determined by BCA protein assay kit (Beyotime). […]

`CC[C@H](C)[C@H](NC(=O)[C@H](C)NC(=O)[C@H](CC(=O)O)NC(=O)[C@H](C)NC(=O)[C@@H](N)Cc1ccc(O)cc1)C(=O)N[C@@H](Cc1ccccc1)C(=O)N[C@H](C(=O)N[C@@H](CC(N)=O)C(=O)N[C@@H](CO)C(=O)N[C@@H](Cc1ccc(O)cc1)C(=O)N[C@@H](CCCNC(=N)N)C(=O)N[C@@H](CCCCN)C(=O)N[C@H](C(=O)N[C@@H](CC(C)C)C(=O)NCC(=O)N[C@@H](CCC(N)=O)C(=O)N[C@@H](CC(C)C)C(=O)N[C@@H](CO)C(=O)N[C@@H](C)C(=O)N[C@@H](CCCNC(=N)N)C(=O)N[C@@H](CCCCN)C(=O)N[C@@H](CC(C)C)C(=O)N[C@@H](CC(C)C)C(=O)N[C@@H](CCC(N)=O)C(=O)N[C@@H](CC(=O)O)C(=O)N[C@H](C(=O)N[C@@H](CCSC)C(=O)N[C@@H](CO)C(=O)N[C@@H](CCCNC(=N)N)C(=O)N[C@@H](CCC(N)=O)C(=O)N[C@@H](CCC(N)=O)C(=O)NCC(=O)N[C@@H](CCC(=O)O)C(=O)N[C@@H](CO)C(=O)N[C@@H](CC(N)=O)C(=O)N[C@@H](CCC(N)=O)C(=O)N[C@@H](CCC(=O)O)C(=O)N[C@@H](CCCNC(=N)N)C(=O)NCC(=O)N[C@@H](C)C(=O)N[C@@H](CCCNC(=N)N)C(=O)N[C@@H](C)C(=O)N[C@@H](CCCNC(=N)N)C(=O)N[C@@H](CC(C)C)C(N)=O)[C@@H](C)CC)C(C)C)[C@@H](C)O` [GHRH, growth hormone–releasing hormone] was tested, and the “Emax of Gs activation” value (SV1/Gs; AUC 0 to 25 min, mean ± SEM, n = 5 in duplicate, * P < 0.05) was 56.67 ± 13.79 % WT GHRHR, the “pEC50 of Gs activation” value (SV1/Gs; AUC 0 to 25 min, three-parameter logistic, mean ± SEM, n = 5 in duplicate, * P < 0.05) was 5.63 ± 0.36 and the “ability of SV1 to activate Gs” value (SV1/Gs; compared with GHRHR, Fig. 1A) was “significantly impaired”. The cAMP response (22Rv1 cells [1]) was “either markedly reduced or marginal cAMP responses”, the cAMP response (LNCaP cells) was “strongest cAMP response” and the cAMP response (PC3 cells) was “either markedly reduced or marginal cAMP responses”. The pERK1/2 response (22Rv1 cells [2]) was “markedly stronger and longer pERK1/2 response”.
